Holding throughout (assay): DSF 100 kinase selectivity screen;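 further: compound tested at 20 µM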
Format in all cases: binding

Assay [1] deals with T1, ~100 representative kinases (Homo sapiens, UniProt O14976).
T1 construct: Recombinant protein kinase domains with a concentration of 2 μM
T1 sequence (O14976 1-1311): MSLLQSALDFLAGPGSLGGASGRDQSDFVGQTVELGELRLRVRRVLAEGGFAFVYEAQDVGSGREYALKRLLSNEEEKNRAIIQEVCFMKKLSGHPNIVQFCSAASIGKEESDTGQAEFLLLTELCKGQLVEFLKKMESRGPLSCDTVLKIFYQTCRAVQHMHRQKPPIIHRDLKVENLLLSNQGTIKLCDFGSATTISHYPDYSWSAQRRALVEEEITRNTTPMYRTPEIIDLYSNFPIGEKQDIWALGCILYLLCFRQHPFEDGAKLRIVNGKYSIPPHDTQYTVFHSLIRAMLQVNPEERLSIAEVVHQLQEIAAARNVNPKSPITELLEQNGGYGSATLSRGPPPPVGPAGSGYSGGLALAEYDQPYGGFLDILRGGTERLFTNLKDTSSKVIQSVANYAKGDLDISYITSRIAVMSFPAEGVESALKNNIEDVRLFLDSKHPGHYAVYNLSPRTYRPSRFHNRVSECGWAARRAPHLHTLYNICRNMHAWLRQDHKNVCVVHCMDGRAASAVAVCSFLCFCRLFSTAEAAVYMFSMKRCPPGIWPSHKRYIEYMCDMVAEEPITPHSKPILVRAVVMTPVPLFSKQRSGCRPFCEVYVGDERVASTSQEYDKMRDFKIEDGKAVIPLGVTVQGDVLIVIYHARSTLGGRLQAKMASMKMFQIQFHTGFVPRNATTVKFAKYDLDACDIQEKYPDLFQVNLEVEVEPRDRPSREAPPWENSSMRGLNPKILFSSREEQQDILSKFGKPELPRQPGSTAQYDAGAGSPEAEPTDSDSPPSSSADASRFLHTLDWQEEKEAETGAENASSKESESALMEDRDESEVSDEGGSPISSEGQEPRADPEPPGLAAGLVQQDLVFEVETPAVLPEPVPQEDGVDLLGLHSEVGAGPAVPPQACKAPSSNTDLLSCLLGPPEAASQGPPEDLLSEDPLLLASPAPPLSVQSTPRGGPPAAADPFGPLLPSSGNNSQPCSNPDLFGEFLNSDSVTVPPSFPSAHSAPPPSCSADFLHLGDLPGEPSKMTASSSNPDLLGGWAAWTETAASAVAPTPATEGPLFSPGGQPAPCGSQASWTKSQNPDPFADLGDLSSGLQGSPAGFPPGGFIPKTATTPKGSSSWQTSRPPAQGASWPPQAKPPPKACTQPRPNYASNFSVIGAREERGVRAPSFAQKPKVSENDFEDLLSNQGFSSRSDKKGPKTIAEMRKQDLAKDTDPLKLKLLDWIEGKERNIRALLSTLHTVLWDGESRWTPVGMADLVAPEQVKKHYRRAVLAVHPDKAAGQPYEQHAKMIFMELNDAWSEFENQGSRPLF
The note with it: protein GAK; average of three replicates. The method, boiled down:
(§1)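 Each kinase domain, at 2 μM, is mixed with 20 μM test compound and SYPRO Orange in Hepes (20 mM, pH 7.5) with 500 mM NaCl. Temperature is then raised at 3°C/min and fluorescence-monitored unfolding yields the melting temperature change, ΔTm in degrees Celsius.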

The target of assay [2] is T2, ~100 representative kinases (Homo sapiens, UniProt P16083).
T2 construct: Recombinant protein kinase domains with a concentration of 2 μM
T2 sequence (P16083 1-231): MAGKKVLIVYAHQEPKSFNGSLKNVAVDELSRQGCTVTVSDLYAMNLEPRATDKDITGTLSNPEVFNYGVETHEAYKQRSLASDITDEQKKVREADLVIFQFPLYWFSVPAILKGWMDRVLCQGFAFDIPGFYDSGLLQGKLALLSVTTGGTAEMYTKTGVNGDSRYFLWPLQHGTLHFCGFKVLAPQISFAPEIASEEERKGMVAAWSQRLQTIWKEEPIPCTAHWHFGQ
The note with it: protein NQO2; average of three replicates. The method, boiled down: as §1

Assay [3] addresses T3, ~100 representative kinases (Homo sapiens, UniProt P17948).
T3 construct: Recombinant protein kinase domains with a concentration of 2 μM
The note with it: protein FLT1; average of three replicates. The method, boiled down:
as §1

Assay [4] addresses T4, ~100 representative kinases (Homo sapiens, UniProt P24941).
T4 construct: Recombinant protein kinase domains with a concentration of 2 μM
The settings on record: Protein CDK2; average of three replicates. In short, it runs like this: as §1

Assay [5] addresses T5, ~100 representative kinases (Homo sapiens, UniProt Q8TD08).
T5 construct: Recombinant protein kinase domains with a concentration of 2 μM
T5 sequence (Q8TD08 1-544): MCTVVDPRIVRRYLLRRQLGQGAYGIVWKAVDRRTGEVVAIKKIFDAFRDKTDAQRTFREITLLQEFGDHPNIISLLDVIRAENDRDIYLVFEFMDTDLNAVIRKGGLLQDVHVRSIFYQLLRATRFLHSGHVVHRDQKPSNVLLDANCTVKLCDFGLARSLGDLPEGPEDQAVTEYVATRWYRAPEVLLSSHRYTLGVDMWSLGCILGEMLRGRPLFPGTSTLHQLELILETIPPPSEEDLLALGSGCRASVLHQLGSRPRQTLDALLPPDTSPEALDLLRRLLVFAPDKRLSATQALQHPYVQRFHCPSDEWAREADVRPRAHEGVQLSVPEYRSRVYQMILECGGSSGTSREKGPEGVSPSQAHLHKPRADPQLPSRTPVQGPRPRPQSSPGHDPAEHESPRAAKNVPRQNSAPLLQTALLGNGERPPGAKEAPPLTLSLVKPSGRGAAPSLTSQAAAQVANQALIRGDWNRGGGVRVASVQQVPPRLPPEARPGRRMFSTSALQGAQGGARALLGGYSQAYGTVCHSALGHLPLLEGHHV
The settings on record: protein MAPK15; average of three replicates. In short, it runs like this: as §1

Assay [6] addresses T6, ~100 representative kinases (Homo sapiens, UniProt Q96RR4).
T6 construct: Recombinant protein kinase domains with a concentration of 2 μM
The note with it: Protein CAMKK2; average of three replicates. The method, boiled down:
as §1

In assay [7] the target is T7, ~100 representative kinases (Homo sapiens, UniProt Q9NSY1).
T7 construct: Recombinant protein kinase domains with a concentration of 2 μM
The note with it: Protein BMP2K; average of three replicates. In short, it runs like this:
as §1

16 compounds from paper PMC12136037, “Type II kinase inhibitors that target Parkinson’s disease–associated LRRK2” (Science Advances, 2025) can be followed below.

T7 sequence (Q9NSY1 whole entry, the tested form may be a part): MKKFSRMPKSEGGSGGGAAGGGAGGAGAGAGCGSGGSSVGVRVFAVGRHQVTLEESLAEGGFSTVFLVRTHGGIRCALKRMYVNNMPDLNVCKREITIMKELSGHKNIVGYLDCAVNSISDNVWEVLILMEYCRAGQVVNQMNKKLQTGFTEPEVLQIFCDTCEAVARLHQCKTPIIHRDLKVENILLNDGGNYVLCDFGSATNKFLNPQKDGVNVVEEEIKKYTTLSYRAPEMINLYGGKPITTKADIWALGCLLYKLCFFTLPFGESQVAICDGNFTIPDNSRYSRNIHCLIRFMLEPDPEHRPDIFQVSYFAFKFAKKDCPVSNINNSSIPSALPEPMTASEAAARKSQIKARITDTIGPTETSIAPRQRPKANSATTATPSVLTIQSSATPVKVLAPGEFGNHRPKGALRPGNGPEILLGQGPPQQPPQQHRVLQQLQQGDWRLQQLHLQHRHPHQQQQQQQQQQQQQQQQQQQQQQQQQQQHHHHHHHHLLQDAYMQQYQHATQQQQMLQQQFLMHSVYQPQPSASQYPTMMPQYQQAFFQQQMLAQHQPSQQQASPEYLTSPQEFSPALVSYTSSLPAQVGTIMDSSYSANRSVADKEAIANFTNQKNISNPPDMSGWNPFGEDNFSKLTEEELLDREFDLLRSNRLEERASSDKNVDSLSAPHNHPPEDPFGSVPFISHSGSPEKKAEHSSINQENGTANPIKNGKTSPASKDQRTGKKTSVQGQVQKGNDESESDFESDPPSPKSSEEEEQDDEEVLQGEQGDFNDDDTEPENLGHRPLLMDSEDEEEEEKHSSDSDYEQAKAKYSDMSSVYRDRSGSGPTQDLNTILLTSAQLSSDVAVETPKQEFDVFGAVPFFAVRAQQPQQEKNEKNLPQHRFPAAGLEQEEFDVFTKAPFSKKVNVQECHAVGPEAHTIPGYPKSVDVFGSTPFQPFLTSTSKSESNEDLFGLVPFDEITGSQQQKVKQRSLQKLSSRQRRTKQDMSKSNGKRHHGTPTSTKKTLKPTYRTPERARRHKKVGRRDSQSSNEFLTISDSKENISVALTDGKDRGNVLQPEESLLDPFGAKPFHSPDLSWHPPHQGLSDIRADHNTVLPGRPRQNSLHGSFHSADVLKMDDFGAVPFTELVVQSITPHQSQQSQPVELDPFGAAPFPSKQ
T6 sequence (Q96RR4 whole entry, the tested form may be a part): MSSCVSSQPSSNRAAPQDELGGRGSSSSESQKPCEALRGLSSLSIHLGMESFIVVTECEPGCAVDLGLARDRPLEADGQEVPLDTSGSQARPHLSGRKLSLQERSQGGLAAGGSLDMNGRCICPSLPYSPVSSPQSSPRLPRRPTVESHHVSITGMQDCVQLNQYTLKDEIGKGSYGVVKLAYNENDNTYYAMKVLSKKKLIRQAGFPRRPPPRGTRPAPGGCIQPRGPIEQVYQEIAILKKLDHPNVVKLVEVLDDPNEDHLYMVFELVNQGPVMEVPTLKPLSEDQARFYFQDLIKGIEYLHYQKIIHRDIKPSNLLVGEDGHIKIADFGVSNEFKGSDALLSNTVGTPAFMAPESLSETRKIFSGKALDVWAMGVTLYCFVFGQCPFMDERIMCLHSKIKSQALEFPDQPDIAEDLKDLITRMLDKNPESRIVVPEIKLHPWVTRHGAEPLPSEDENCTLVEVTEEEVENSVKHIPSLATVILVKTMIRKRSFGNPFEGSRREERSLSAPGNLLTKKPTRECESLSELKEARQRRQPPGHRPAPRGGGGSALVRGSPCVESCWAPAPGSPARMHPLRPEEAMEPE
T3 sequence (P17948 27-1338): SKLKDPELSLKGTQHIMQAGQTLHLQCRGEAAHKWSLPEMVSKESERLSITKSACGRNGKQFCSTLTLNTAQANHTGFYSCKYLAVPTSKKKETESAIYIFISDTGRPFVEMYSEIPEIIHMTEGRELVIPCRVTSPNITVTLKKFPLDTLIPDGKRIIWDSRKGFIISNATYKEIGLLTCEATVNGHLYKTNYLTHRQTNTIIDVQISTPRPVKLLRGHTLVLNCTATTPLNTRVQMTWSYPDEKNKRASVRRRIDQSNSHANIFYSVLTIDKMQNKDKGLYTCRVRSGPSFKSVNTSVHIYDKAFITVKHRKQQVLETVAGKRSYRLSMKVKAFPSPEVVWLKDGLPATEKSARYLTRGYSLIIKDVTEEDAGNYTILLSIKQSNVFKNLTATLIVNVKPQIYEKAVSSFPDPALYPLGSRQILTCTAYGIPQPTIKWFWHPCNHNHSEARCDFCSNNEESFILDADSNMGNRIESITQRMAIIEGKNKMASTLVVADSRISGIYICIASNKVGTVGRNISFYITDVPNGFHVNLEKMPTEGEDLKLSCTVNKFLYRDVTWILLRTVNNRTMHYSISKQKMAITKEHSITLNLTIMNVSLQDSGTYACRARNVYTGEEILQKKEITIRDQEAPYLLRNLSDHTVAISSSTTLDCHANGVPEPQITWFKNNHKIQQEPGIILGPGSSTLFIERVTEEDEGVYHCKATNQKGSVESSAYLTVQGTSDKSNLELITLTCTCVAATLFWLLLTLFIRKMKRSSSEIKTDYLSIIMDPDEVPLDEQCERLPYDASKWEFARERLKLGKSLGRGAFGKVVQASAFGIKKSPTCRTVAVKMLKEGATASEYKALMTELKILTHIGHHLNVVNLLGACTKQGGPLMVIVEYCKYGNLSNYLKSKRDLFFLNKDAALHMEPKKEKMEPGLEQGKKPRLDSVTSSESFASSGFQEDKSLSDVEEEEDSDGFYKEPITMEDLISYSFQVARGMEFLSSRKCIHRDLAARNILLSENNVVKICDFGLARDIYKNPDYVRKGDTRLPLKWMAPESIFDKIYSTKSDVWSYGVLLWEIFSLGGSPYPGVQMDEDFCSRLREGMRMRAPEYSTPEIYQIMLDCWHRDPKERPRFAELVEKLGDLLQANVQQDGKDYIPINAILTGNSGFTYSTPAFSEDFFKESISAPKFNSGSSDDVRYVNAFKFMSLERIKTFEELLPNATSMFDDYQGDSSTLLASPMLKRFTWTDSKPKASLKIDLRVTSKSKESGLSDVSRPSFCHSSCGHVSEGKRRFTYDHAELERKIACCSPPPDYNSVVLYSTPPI

As to `Cc1ccc(C(=O)Nc2ccc(CN3CCN(C)CC3)c(C(F)(F)F)c2)cc1C#Cc1c[nH]c2ncnc(N3CCOCC3)c12` [Compound 1], the dTm is recorded as 3.03 K in assay [1]; 0.13 K in assay [2]; 4.48 K in assay [3]; 3.53 K in assay [4]; 8.49 K in assay [5]; 10.65 K in assay [6]. This compound displayed a dTm in assay [7] of 7.81 K.

For `O=C(Nc1ccc(F)cc1)C1(C(=O)Nc2cccc(-c3c[nH]c4ncnc(N5CCOCC5)c34)c2)CC1` [Compound 2], the dTm is 0.23 K in assay [1]; -0.56 K in assay [2]; 3.90 K in assay [3]; 4.78 K in assay [4]; 10.01 K in assay [5]; 7.29 K in assay [6]. Moreover, the dTm in assay [7] is 6.37 K.

With `O=C(Nc1cccc(-c2c[nH]c3ncnc(N4CCOCC4)c23)c1)c1cccn(-c2ccc(F)cc2)c1=O` [Compound 4], the dTm is on record as 0.0652 K in assay [1]; -0.15 K in assay [2]; 4.33 K in assay [3]; 7.66 K in assay [4]; 7.29 K in assay [5]; 8.67 K in assay [6]. The compound further gave a dTm in assay [7] of 3.26 K.

For the compound `Cc1ccc(-n2nc(C(C)(C)C)cc2NC(=O)Nc2cccc(-c3c[nH]c4ncnc(N5CCOCC5)c34)c2)cc1` [Compound 29], the dTm in assay [1] was 0.00 K; in assay [2], -0.60 K; in assay [3] it was 12.63 K; in assay [4], 12.74 K; in assay [5] it was 16.65 K; in assay [7], 7.54 K.

`Cc1ccc(-n2nc(C(C)(C)C)cc2NC(=O)Nc2cccc(-c3c[nH]c4nc(Cl)nc(N5CCOCC5)c34)c2)cc1` [Compound 30]: the dTm in assay [1] is -1.53 K; in assay [2], 0.13 K; in assay [3], 7.13 K; in assay [4] it was 1.78 K; in assay [5], 6.72 K; in assay [7], 1.64 K.

Regarding `CC(=O)N1CCN(c2nc(Cl)nc3[nH]cc(-c4cccc(NC(=O)Nc5cc(C(C)(C)C)nn5-c5ccc(C)cc5)c4)c23)CC1` [Compound 31], the dTm is 3.32 K in assay [1]; -0.27 K in assay [2]; 7.62 K in assay [3]; 2.43 K in assay [4]; 8.84 K in assay [5]; 1.28 K in assay [7].

In the case of `COc1cc(C(=O)N2CCOCC2)c(F)cc1Nc1nc(N(C)C)c2c(Cl)c[nH]c2n1` [Compound 36], the dTm in assay [1] was 6.68 K; in assay [2], -0.44 K; in assay [3], 0.33 K; in assay [4], -0.66 K; in assay [5], 0.97 K; in assay [7], 1.71 K.

For `COc1cc(S(C)(=O)=O)ccc1Nc1nc(N(C)C)c2c(Cl)c[nH]c2n1` [Compound 37], the dTm in assay [1] is on record as 3.76 K; in assay [2], -0.63 K; in assay [3], -0.32 K; in assay [4], -0.37 K; in assay [5] it was -0.10 K; in assay [7], 0.08 K.

`COc1cc2c(Oc3ccc(NC(=O)C4(C(=O)Nc5ccc(F)cc5)CC4)cc3F)ccnc2cc1OCCCN1CCOCC1` [Foretinib, reference compound]: the dTm was determined as 2.91 K in assay [1]; 0.08 K in assay [2]; 0.40 K in assay [4]; 8.58 K in assay [5]; 10.75 K in assay [6]; 1.65 K in assay [7].

In the case of `CCNc1nc(Nc2cc(F)c(C(=O)N3CCOCC3)cc2OC)ncc1C(F)(F)F` [GNE-7915], the dTm in assay [1] came to 0.77 K; in assay [3], 1.69 K; in assay [4] it was 1.40 K; in assay [5] it was 2.03 K; in assay [6] it was 1.38 K; in assay [7], 8.11 K.

`Cc1ccc(C(=O)Nc2ccc(CN3CCN(C)CC3)c(C(F)(F)F)c2)cc1C#Cc1cnc2[nH]ncc2c1` [GZD-824, reference compound]: the dTm in assay [1] stood at 11.23 K; in assay [3], 22.54 K; in assay [4], 4.99 K; in assay [5], 5.29 K; in assay [6], 8.63 K; in assay [7], 4.51 K.

In the case of `C[C@@H]1CN(c2cc(-c3n[nH]c4ccc(OC5(C)CC5)cc34)ncn2)C[C@H](C)O1` [MLi2], the dTm in assay [1] is recorded as 0.31 K; in assay [3], 0.51 K; in assay [4], -0.0213 K; in assay [5], -0.33 K; in assay [6], 8.80 K; in assay [7], 2.01 K.

On to `Cn1cc(-c2c[nH]c3ncnc(N4CCOCC4)c23)cc1C#N` [PFE-360], for which the dTm in assay [1] was -0.50 K; in assay [3] it was 2.46 K; in assay [4], 0.68 K; in assay [5], 3.82 K; in assay [6] it was 5.91 K; in assay [7] it was 14.15 K.

As to `Cc1ccc(C(=O)Nc2ccc(CN3CCN(C)CC3)c(C(F)(F)F)c2)cc1C#Cc1cnc2cccnn12` [Ponatinib, reference compound], the values for the dTm in assay [3] and in assay [4] were 18.52 K and 4.72 K, respectively.

With `CNC(=O)c1cc(Oc2ccc(NC(=O)Nc3cc(C(C)(C)C)nn3-c3ccc4ncccc4c3)c(F)c2)ccn1` [Rebastinib, reference compound], the dTm is 4.99 K in assay [1]; -1.54 K in assay [2]; 9.06 K in assay [4]; 14.70 K in assay [5]; 8.93 K in assay [6]; 0.72 K in assay [7].

Take `CN[C@@H]1C[C@H]2O[C@@](C)([C@@H]1OC)n1c3ccccc3c3c4c(c5c6ccccc6n2c5c31)C(=O)NC4` [Staurosporine]: the figures for the dTm in assay [3], in assay [6] and in assay [7] were 13.08 K, 24.44 K and 18.68 K, respectively.
